Experiments:
[1] = target: ALK tyrosine kinase receptor (Homo sapiens) (UniProt Q9UM73); details: Compound concentration 1000.0 nM
[2] = test system: Phosphatidylinositol 4,5-bisphosphate 3-kinase catalytic subunit alpha isoform (Homo sapiens), P42336 [H1047L]; details: Compound concentration 1000.0 nM
[3] = target: Beta-3 adrenergic receptor (Homo sapiens, UniProt P13945); details: Compound concentration 10.0 uM
[4] = test system: Phosphatidylinositol 4,5-bisphosphate 3-kinase catalytic subunit alpha isoform (Homo sapiens), P42336 [M1043I]; details: Compound concentration 1000.0 nM
[5] = target: Death-associated protein kinase 3 (Homo sapiens) (UniProt O43293); details: Compound concentration 1000.0 nM
[6] = target: Serine/threonine-protein kinase 3 (Homo sapiens) (UniProt Q13188); details: Compound concentration 1000.0 nM
Serine/threonine-protein kinase 3 (Homo sapiens), sequence (Q13188 whole entry): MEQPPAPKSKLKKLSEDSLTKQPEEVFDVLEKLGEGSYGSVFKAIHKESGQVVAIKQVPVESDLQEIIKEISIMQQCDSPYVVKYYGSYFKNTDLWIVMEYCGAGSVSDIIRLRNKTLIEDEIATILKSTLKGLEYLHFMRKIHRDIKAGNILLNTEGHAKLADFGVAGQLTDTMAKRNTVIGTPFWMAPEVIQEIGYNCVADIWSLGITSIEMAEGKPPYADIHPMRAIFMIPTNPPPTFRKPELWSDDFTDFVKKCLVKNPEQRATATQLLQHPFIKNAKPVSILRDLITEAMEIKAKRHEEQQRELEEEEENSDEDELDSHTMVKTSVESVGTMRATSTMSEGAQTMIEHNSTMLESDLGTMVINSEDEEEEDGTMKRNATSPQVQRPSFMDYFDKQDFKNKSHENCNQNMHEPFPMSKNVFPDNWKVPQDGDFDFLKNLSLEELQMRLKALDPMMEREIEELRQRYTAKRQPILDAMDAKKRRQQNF

[7] = target: Protein-tyrosine kinase 2-beta (Homo sapiens) (UniProt Q14289); details: Compound concentration 1000.0 nM
[8] = target: Tyrosine-protein kinase ITK/TSK (Homo sapiens) (UniProt Q08881); details: Compound concentration 1000.0 nM
[9] = target: RAF proto-oncogene serine/threonine-protein kinase (Homo sapiens) (UniProt P04049); details: Compound concentration 1000.0 nM
[10] = target: Macrophage colony-stimulating factor 1 receptor (Homo sapiens) (UniProt P07333); details: Compound concentration 1000.0 nM
Macrophage colony-stimulating factor 1 receptor (Homo sapiens), sequence (P07333 whole entry): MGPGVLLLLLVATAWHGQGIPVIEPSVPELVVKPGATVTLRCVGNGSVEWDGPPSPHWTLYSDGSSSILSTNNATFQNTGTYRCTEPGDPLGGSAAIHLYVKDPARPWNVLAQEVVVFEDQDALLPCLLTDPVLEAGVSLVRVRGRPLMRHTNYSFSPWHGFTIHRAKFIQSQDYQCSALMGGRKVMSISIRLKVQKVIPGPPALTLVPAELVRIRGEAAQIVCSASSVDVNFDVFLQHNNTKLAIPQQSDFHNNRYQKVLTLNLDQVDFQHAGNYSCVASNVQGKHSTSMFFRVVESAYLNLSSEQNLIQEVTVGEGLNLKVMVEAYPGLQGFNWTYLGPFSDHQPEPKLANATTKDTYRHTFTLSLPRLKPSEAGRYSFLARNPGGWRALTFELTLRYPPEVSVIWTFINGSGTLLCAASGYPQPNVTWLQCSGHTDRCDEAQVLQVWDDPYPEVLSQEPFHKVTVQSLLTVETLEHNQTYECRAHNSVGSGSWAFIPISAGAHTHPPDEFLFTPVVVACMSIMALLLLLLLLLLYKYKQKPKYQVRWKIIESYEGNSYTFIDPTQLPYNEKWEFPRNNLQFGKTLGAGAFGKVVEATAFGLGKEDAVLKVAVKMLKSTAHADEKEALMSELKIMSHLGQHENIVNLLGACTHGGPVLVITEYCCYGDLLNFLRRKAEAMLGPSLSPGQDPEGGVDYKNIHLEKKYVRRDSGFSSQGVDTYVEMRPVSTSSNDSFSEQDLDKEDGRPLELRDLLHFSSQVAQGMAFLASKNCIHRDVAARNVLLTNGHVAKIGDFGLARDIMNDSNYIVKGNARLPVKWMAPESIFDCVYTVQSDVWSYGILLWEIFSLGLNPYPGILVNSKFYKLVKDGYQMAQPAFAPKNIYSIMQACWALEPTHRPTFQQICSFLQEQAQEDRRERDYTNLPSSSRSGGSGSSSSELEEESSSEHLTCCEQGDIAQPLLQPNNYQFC

[11] = target: Death-associated protein kinase 1 (Homo sapiens) (UniProt P53355); details: Compound concentration 1000.0 nM
[12] = target: Homeodomain-interacting protein kinase 1 (Homo sapiens) (UniProt Q86Z02); details: Compound concentration 1000.0 nM
[13] = target: Serine/threonine-protein kinase Nek5 (Homo sapiens) (UniProt Q6P3R8); details: Compound concentration 1000.0 nM
[14] = target: Dual specificity mitogen-activated protein kinase kinase 3 (Homo sapiens) (UniProt P46734); details: Compound concentration 1000.0 nM
[15] = test system: Phosphatidylinositol 4,5-bisphosphate 3-kinase catalytic subunit alpha isoform (Homo sapiens), P42336 [E542K]; details: Compound concentration 1000.0 nM
[16] = test system: Epidermal growth factor receptor (Homo sapiens), P00533 [L858R,T790M]; details: Compound concentration 1000.0 nM
[17] = target: Serine/threonine-protein kinase RIO3 (Homo sapiens) (UniProt O14730); details: Compound concentration 1000.0 nM
[18] = target: Cyclin-dependent kinase-like 3 (Homo sapiens) (UniProt Q8IVW4); details: Compound concentration 1000.0 nM
[19] = target: cAMP-dependent protein kinase catalytic subunit beta (Homo sapiens) (UniProt P22694); details: Compound concentration 1000.0 nM
[20] = target: Non-receptor tyrosine-protein kinase TNK1 (Homo sapiens) (UniProt Q13470); details: Compound concentration 1000.0 nM
[21] = target: Tyrosine-protein kinase receptor Tie-1 (Homo sapiens) (UniProt P35590); details: Compound concentration 1000.0 nM
[22] = target: Ephrin type-B receptor 6 (Homo sapiens) (UniProt O15197); details: Compound concentration 1000.0 nM
[23] = target: Serine/threonine-protein kinase Nek7 (Homo sapiens) (UniProt Q8TDX7); details: Compound concentration 1000.0 nM
[24] = target: Ephrin type-B receptor 2 (Homo sapiens) (UniProt P29323); details: Compound concentration 1000.0 nM
[25] = target: Mitogen-activated protein kinase 11 (Homo sapiens) (UniProt Q15759); details: Compound concentration 1000.0 nM
[26] = target: Calcium/calmodulin-dependent protein kinase type II subunit beta (Homo sapiens) (UniProt Q13554); details: Compound concentration 1000.0 nM
[27] = target: Bone morphogenetic protein receptor type-2 (Homo sapiens) (UniProt Q13873); details: Compound concentration 1000.0 nM
[28] = target: Serine/threonine-protein kinase WNK2 (Homo sapiens) (UniProt Q9Y3S1); details: Compound concentration 1000.0 nM
[29] = target: Myotonin-protein kinase (Homo sapiens) (UniProt Q09013); details: Compound concentration 1000.0 nM
[30] = test system: Receptor-type tyrosine-protein kinase FLT3 (Homo sapiens), P36888 [D835V]; details: Compound concentration 1000.0 nM
[31] = target: G protein-coupled receptor kinase 3 (Homo sapiens) (UniProt P35626); details: Compound concentration 1000.0 nM
[32] = target: Activated CDC42 kinase 1 (Homo sapiens) (UniProt Q07912); details: Compound concentration 1000.0 nM
Activated CDC42 kinase 1 (Homo sapiens), sequence (Q07912 whole entry, looked up): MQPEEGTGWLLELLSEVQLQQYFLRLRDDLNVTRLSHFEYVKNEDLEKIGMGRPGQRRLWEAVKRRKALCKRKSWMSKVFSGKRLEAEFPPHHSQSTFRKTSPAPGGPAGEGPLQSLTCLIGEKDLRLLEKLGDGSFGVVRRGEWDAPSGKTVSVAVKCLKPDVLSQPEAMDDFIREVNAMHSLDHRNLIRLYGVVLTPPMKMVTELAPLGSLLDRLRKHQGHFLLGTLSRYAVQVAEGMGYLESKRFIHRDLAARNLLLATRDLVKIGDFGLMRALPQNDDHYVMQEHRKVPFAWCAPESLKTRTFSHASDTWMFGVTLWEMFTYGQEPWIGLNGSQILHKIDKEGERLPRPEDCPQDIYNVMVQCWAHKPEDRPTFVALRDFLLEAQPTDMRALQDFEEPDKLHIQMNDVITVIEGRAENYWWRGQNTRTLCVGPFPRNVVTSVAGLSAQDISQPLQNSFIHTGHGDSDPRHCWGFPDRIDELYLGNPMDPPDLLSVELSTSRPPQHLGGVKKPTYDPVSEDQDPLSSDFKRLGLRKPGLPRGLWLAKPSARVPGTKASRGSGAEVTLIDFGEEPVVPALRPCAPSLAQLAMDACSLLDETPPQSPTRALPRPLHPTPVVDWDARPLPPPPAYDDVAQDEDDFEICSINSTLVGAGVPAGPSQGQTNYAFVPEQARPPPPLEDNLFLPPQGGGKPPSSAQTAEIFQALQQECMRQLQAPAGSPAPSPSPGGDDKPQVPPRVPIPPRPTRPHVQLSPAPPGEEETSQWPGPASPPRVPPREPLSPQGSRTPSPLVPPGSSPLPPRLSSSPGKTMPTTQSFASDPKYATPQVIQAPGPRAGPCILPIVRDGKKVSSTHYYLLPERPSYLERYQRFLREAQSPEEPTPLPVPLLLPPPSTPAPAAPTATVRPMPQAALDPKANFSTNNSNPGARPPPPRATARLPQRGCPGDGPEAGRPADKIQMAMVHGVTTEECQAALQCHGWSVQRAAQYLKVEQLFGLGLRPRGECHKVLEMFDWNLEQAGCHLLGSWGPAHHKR

[33] = target: Receptor-interacting serine/threonine-protein kinase 2 (Homo sapiens) (UniProt O43353); details: Compound concentration 1000.0 nM
[34] = target: Tyrosine-protein kinase receptor UFO (Homo sapiens) (UniProt P30530); details: Compound concentration 1000.0 nM
[35] = target: Eukaryotic translation initiation factor 2-alpha kinase 1 (Homo sapiens) (UniProt Q9BQI3); details: Compound concentration 1000.0 nM
Eukaryotic translation initiation factor 2-alpha kinase 1 (Homo sapiens), sequence (Q9BQI3 whole entry): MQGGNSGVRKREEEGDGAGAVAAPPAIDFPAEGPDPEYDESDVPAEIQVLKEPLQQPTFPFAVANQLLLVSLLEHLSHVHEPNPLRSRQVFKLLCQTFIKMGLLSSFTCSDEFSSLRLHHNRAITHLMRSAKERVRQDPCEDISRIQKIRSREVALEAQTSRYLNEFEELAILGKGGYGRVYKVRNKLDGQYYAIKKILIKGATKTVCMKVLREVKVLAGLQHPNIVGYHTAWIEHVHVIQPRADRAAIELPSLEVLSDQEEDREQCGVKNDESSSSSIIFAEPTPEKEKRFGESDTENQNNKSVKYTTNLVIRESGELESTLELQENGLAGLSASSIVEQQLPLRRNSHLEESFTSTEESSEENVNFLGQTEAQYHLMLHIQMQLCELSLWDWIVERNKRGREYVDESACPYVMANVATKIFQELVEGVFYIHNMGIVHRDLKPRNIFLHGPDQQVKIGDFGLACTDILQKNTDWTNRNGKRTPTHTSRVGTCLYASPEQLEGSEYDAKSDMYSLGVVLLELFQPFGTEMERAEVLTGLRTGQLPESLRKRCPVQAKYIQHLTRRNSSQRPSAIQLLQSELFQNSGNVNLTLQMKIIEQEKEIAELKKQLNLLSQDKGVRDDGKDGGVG

[36] = target: Testis-specific serine/threonine-protein kinase 3 (Homo sapiens) (UniProt Q96PN8); details: Compound concentration 1000.0 nM
[37] = target: Interferon-induced, double-stranded RNA-activated protein kinase (Homo sapiens) (UniProt P19525); details: Compound concentration 1000.0 nM
[38] = test system: Tyrosine-protein kinase ABL1 (Homo sapiens), P00519 [T315I]; details: Compound concentration 1000.0 nM
[39] = target: Myosin light chain kinase family member 4 (Homo sapiens) (UniProt Q86YV6); details: Compound concentration 1000.0 nM
[40] = target: Dual specificity protein kinase CLK2 (Homo sapiens) (UniProt P49760); details: Compound concentration 1000.0 nM
[41] = target: Serine/threonine-protein kinase pim-2 (Homo sapiens) (UniProt Q9P1W9); details: Compound concentration 1000.0 nM
[42] = target: Inhibitor of nuclear factor kappa-B kinase subunit epsilon (Homo sapiens) (UniProt Q14164); details: Compound concentration 1000.0 nM
Inhibitor of nuclear factor kappa-B kinase subunit epsilon (Homo sapiens), sequence (Q14164 whole entry): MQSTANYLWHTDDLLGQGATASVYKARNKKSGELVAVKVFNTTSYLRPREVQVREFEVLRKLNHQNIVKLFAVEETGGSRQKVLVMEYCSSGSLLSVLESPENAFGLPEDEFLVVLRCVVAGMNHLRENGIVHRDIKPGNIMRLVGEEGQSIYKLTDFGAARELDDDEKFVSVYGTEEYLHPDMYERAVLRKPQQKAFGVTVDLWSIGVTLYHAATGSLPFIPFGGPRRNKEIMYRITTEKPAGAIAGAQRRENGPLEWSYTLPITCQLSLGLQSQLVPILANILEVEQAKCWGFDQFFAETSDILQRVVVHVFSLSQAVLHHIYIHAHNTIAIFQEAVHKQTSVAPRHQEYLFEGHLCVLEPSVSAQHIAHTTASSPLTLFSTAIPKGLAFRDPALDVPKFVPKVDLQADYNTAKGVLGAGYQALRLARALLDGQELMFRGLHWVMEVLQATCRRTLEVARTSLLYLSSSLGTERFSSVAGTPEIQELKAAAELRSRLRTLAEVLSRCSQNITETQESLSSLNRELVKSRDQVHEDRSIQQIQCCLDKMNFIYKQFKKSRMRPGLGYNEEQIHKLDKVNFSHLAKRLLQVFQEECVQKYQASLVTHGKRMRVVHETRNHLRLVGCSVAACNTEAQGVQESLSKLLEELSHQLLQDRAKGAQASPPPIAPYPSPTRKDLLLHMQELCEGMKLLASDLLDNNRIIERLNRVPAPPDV

[43] = target: Serine/threonine-protein kinase 24 (Homo sapiens) (UniProt Q9Y6E0); details: Compound concentration 1000.0 nM
[44] = target: D(4) dopamine receptor (Homo sapiens) (UniProt P21917); details: Compound concentration 10.0 uM
[45] = target: Non-receptor tyrosine-protein kinase TYK2 (Homo sapiens) (UniProt P29597); details: Compound concentration 1000.0 nM
Non-receptor tyrosine-protein kinase TYK2 (Homo sapiens), sequence (P29597 whole entry): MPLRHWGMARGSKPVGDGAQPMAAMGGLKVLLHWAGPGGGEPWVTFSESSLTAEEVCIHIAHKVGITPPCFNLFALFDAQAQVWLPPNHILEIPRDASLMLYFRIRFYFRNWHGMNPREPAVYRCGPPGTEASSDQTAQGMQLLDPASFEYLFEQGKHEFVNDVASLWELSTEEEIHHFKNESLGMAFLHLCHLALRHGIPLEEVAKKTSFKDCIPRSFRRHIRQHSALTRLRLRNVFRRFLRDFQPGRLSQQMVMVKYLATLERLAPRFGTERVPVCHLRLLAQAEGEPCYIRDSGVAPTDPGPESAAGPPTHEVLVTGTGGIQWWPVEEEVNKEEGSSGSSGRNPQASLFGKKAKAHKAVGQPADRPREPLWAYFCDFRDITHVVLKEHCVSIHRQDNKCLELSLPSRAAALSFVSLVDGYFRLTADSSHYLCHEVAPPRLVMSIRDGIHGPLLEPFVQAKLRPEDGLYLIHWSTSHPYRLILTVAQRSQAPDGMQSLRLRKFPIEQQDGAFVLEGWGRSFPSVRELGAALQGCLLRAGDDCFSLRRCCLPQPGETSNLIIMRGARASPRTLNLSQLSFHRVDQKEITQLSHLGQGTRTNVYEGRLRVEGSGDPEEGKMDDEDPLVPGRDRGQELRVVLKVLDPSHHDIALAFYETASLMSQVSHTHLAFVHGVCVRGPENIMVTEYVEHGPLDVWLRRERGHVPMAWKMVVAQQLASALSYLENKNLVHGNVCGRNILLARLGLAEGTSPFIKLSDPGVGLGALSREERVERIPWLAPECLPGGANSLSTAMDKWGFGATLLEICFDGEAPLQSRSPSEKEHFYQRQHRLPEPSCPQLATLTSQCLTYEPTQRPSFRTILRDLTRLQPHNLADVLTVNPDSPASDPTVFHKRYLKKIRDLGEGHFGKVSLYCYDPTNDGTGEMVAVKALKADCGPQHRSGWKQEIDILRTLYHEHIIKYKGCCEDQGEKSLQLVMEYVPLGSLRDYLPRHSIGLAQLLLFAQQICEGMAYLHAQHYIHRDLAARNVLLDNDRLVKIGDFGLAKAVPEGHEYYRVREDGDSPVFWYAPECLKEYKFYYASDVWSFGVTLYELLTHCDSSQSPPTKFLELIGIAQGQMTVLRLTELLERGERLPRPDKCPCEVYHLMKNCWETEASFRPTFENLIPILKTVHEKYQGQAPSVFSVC

COc1ccc2c(O[C@@H]3C[C@H]4C(=O)N[C@]5(C(=O)O)CC5/C=C\CCCCC[C@H](NC(=O)OC5CCCC5)C(=O)N4C3)cc(-c3csc(NC(=O)C(C)C)n3)nc2c1C (stereo not given in full) [BI 1230]
residual activity [1]: 74%
residual activity [2]: 79%
inhibition [3]: 57.4%
residual activity [4]: 88%
residual activity [5]: 100%
residual activity [6]: 86%
residual activity [7]: 100%
residual activity [8]: 95%
residual activity [9]: 95%
residual activity [10]: 71%
residual activity [11]: 100%
residual activity [12]: 77%
residual activity [13]: 98%
residual activity [14]: 82%
residual activity [15]: 71%
residual activity [16]: 100%
residual activity [17]: 100%
residual activity [18]: 92%
residual activity [19]: 100%
residual activity [20]: 100%
residual activity [21]: 100%
residual activity [22]: 89%
residual activity [23]: 100%
residual activity [24]: 98%
residual activity [25]: 100%
residual activity [26]: 100%
residual activity [27]: 84%
residual activity [28]: 87%
residual activity [29]: 83%
residual activity [30]: 79%
residual activity [31]: 99%
residual activity [32]: 100%
residual activity [33]: 100%
residual activity [34]: 97%
residual activity [35]: 96%
residual activity [36]: 80%
residual activity [37]: 100%
residual activity [38]: 87%
residual activity [39]: 81%
residual activity [40]: 100%
residual activity [41]: 100%
residual activity [42]: 82%
residual activity [43]: 100%
inhibition [44]: 24.6%
residual activity [45]: 100%

O=C(N[C@H]1CCCCC/C=C\C2C[C@@]2(C(=O)O)NC(=O)[C@@H]2C[C@@H](Oc3ccncc3)CN2C1=O)OC1CCCC1 (stereo not given in full) [BI 1675]
residual activity [1]: 100%
residual activity [2]: 100%
inhibition [3]: -9.47%
residual activity [4]: 84%
residual activity [5]: 100%
residual activity [6]: 76%
residual activity [7]: 100%
residual activity [8]: 100%
residual activity [9]: 100%
residual activity [10]: 95%
residual activity [11]: 83%
residual activity [12]: 86%
residual activity [13]: 91%
residual activity [14]: 80%
residual activity [15]: 96%
residual activity [16]: 98%
residual activity [17]: 100%
residual activity [18]: 99%
residual activity [19]: 100%
residual activity [20]: 100%
residual activity [21]: 100%
residual activity [22]: 89%
residual activity [23]: 100%
residual activity [24]: 91%
residual activity [25]: 100%
residual activity [26]: 99%
residual activity [27]: 100%
residual activity [28]: 100%
residual activity [29]: 89%
residual activity [30]: 92%
residual activity [31]: 100%
residual activity [32]: 100%
residual activity [33]: 100%
residual activity [34]: 95%
residual activity [35]: 100%
residual activity [36]: 100%
residual activity [37]: 100%
residual activity [38]: 84%
residual activity [39]: 100%
residual activity [40]: 100%
residual activity [41]: 100%
residual activity [42]: 100%
residual activity [43]: 81%
inhibition [44]: 9.26%
residual activity [45]: 98%
